One test relates to CT-26 cells. Nature of the test: Cell viability (CCK-8) of CT-26 cells. In kind it is cell-based, mouse. As to conditions: 4 h pretreatment with anticancer agent alone. The method, then: CT-26 and MC-38 cells (10^4 cells per well) were seeded into three wells of a 96-well plate and incubated at 37° C. The next day, the culture medium was replaced with 100 μL of fresh medium containing the above concentrations of anticancer agents. After incubation at 37° C. for 4 h, the culture medium was removed and the cells were washed three times with PBS. […] Finally, CCK-8 reagent (10 μL/well) was added for 3 h at 37° C., and the amount of color in each sample was measured at OD450.

The subject of another test is CT-26 tumor. Nature of the test: In vivo anti-cancer efficacy in CT-26 tumor-bearing mice. The method, then:
CT-26 and MC-38 tumor cells (106 in 100 μL PBS) were implanted subcutaneously into the right flanks of 6-week-old BALB/c and C57BL/6 female mice (Orient company, Korea), respectively. When the tumors reached about 100 mm^3, the tumor-bearing mice were injected intraperitoneally with anticancer agents (15 mg/kg GEM, 10 mg/kg DOX or 2 mg/kg MTX) three times every 2 days. Simultaneously, the mice were injected intravenously with the PASylated recombinant proteins of the present invention five times every 2 days. The length (L), width (W), and height (H) of each tumor were recorded every 3 days using a digital caliper, and the tumor volume (mm3) was calculated using the following formula (L×H×W)/2. Mice were euthanized when tumors were ˜1,500 mm^3 and all animal experiments were performed in accordance with the general principles and procedures outlined in the National Institutes of Health Guidelines, and all protocols were approved by the Chonnam National University Animal Care and Use Committee (permit number: HCRL 16-001).

Regarding `Nc1ccn([C@@H]2O[C@H](CO)[C@@H](O)C2(F)F)c(=O)n1` [GEM, gemcitabine, reference compound], the “decrease in cell viability by pretreatment with anticancer agents” value (shortened to “decrease in cell viability”) with CT-26 cells amounted to 45.1%. Take `O=C1c2c(O)ccc(O)c2C(=O)c2c(NCCNCCO)ccc(NCCNCCO)c21` [MTX, mitozantrone, reference compound]: in the test on CT-26 cells, the “decrease in cell viability” value amounted to 62.3%. For `COc1cccc2c1C(=O)c1c(O)c3c(c(O)c1C2=O)C[C@@](O)(C(=O)CO)C[C@@H]3O[C@H]1C[C@H](N)[C@H](O)[C@H](C)O1` [DOX, doxorubicin, reference compound], in the test with CT-26 cells, the “decrease in cell viability” value is reported as 57.9%. The average tumor weight in the test on CT-26 tumor (day 12, combination with DOX, 8 IU/mouse) is listed as 304.8 mg. Also, the tumor growth result in the test on CT-26 tumor (dose-finding study, DOX 10 mg/kg i.p. x3, CRT3LP i.v. x5, n=3) is given as “grew more slowly than untreated tumors”.

Values taken from US20250376507A1, “NOVEL TUMOR ANTIGEN-TARGETING ANTICANCER AGENT” (INDUSTRY FOUNDATION OF CHONNAM NATIONAL UNIVERSITY, priority 2022, published 2025).
